# Experimental data: patent publication US20260102413A1, “TREATING PAIN ASSOCIATED WITH CENTRAL SENSITIZATION” (Medicon Pharmaceuticals, Inc., priority 2022, published 2026)
# How the values were obtained:
# [1] = system: mice with paclitaxel-induced neuropathic pain (CIPN); test: von Frey paw withdrawal threshold (mechanical allodynia), paclitaxel-induced CIPN / central sensitization, treatment of established pain, topical test compounds; assay type: in vivo, mouse
# Procedure: Paw withdrawn, licking or shaking were considered positive responses.
# (§1) The first doses were administered 5 days after the last administration of paclitaxel (i.e., at day 0).
# The PWT test was performed prior to the administration of paclitaxel (day −8) to establish the threshold in mice without neuropathic pain associated with CIPN (the value shown is an average of the PWT in all groups at day −8).
# Pain associated with CIPN was established in line with the experiments disclosed herein. Mice were treated with naproxen 2.4% (equimolar to PN 5%), aspirin 1.7% (equimolar to PA2 5%); or ibuprofen 2.5% (equimolar to PI 5%) or vehicle applied topically to both hind paws 3×/day for 14 days.
# CIPN was induced in mice with chemotherapeutic agents using established protocols (Carozzi et al, 2010; Currie et al, 2019; Eldridge et al, 2020).
# The first doses were administered 1 day after the last administration of paclitaxel (i.e., at day 0).
# as §1
# The PWT test was performed on day 21, at the end of the experiment, but was also additionally determined on day 14 for LXIX.
# [2] = system: mice with chronic constriction injury of the left sciatic nerve (PTPN); test: von Frey PWT, chronic constriction injury (CCI) model of PTPN, topical compounds; assay type: in vivo, mouse; settings: PI, PN 5% on left hind paw 3x/day 14 days; day 14
# Procedure: The PWT test was performed following ligation, but prior to treatment to determine baseline values. The PWT was then further measured on day 14.
# in vivo = settings: Sprague-Dawley, rat, po, 95 mg/kg; for AUC(0-t): AUC0-24 h; for AUC(0-t) / Cmax / Tmax: single oral dose PN 95 mg/kg, rats
# Procedure: Approximately 800 μL of blood were collected through cardiac puncture and immediately centrifuged.
# Tissue samples were harvested using separate dissection instruments for each tissue sample to avoid cross contamination, and snap frozen. The levels of the test drug were determined by HPLC.
# As previously described (Wen et al, 2019), each plasma sample was mixed with double volume of acetonitrile and centrifuged at 13,200 rpm for 15 min. Tissue samples were weighed, ddH2O (100-300 μL, depending on tissue weight) was added, and they were homogenized. Following addition of acetonitrile (twice the volume of the homogenate), the mixture was sonicated for 10 min, centrifuged at 13,200 rpm for 15 min, and analyzed by HPLC, as reported (Wen et al, 2019).
# It was performed following a previously reported method (Xie et al, 2012). Briefly, the HPLC system consisted of a Waters Alliance 2695 Separations Module (Milford, MA, USA) equipped with a Waters 2998 photodiode array detector (328 nm) and a Thermo Hypersil BDS C18 column (150×4.6 mm, particle size 3 μm). The mobile phase consisted of a gradient between solvent A (formic acid, CH3CN, H2O (0.1:4.9:95 v/v/v)) and solvent B (CH3CN) at a flow rate of 1 mL·min−1 at 30° C. We applied gradient elution from 30 to 100% solvent B from 0-6 min, and it was maintained at 100% solvent B until 8 min.
# The methods are identical to those used in Example 27.
# A single dose of PN or PSA was given by oral gavage to groups of three Sprague-Dawley rats, which were euthanized and dissected according to the early example. The oral gavage solution of phosphonaproxen was prepared by dissolving in 10% DMSO and then suspending it in corn oil.
# [3] = system: mice with paclitaxel-induced CIPN; test: von Frey PWT, paclitaxel CIPN model, orally administered compounds; assay type: in vivo, mouse; settings: mouse, in vivo
# Text: CIPN was induced in mice with chemotherapeutic agents using established protocols (Carozzi et al, 2010; Currie et al, 2019; Eldridge et al, 2020). […] This dosing regimen of paclitaxel produces pain associated with CIPN with time courses that are similar to those of pain after paclitaxel administration in cancer patients.
# Group 1: naïve mice (i.e. no paclitaxel, n=8) • 2. Group 2: paclitaxel only (n=8) • 3. Group 3: paclitaxel plus vehicle (n=8) • 4. […] Group 5: paclitaxel pluse sulindac (n=8)
# The PWT test was performed on day 7.
# Phospho-naproxen (PN) and naproxen were given by oral gavage, three times a day for 7 days. Their doses were as follows: PN, 65 mg/kg; naproxen, 35 mg/kg (equimolar to PN). The response of mechanical allodynia to phospho-naproxen (PN) and naproxen was tested on day 7.
# (§2) This dosing regimen of paclitaxel produces pain associated with CIPN with time courses that are similar to those of pain after paclitaxel administration in cancer patients.
# Phospho-ibuprofen (PI) (Formula III), phospho-glycerol-ibuprofen (PGI) (Formula LXXI), phospho-ibuprofen-amide (PIA) (Formula XI), and ibuprofen were given by oral gavage, three times a day for 6 days. Their doses were as follows: ibuprofen, 40 mg/kg; PI, 80 mg/kg; PIA, 80 mg/kg; all three were equimolar.
# The response of mechanical allodynia to these compounds was tested on day 6, using the PWT test.
# as §2
# NO-sulindac (Formula XLIV), HS-sulindac (Formula XXXIV), platinum-sulindac (Formula LXVII), and NOSH-1 (Formula LIX) were given by oral gavage, three times a day throughout the study period. Their doses were all 100 mg/kg.
# The response of mechanical allodynia to these compounds was tested on the days set out in the table below, via the PWT test.
# LXIX was given by oral gavage, once a day for 14 days at a dose of 100 mg/kg.
# The response of mechanical allodynia to these compounds was tested on day 14, via the PWT test.
# [4] = system: mice with NTG-induced migraine; test: von Frey PWT, NTG-induced migraine model, oral or intraperitoneal compounds; assay type: in vivo, mouse; settings: mouse, in vivo
# Procedure: Phosphonaproxen (Formula VIII), and its parent compound, naproxen, were administered orally to each mouse group. All compounds were administered at equimolar doses. In particular, phosponaproxen was administered at 65 mg/kg, and naproxen was administered at 35 mg/kg, 30 minutes after NTG administration. The response of mechanical allodynia was tested 30 minutes after administration.
structure (smiles),measurement,setting,value
"CCOP(=O)(OCC)OCCCCOC(=O)C(C)c1ccc2cc(OC)ccc2c1 (stereo not shown) [PN, phospho-naproxen]","hydrolysis by carboxylesterases, times slower than PS",carboxylesterases,about 5 times
same,"Paw-withdrawal threshold, g Mean ± SEM, Day 0","[1]; group value after paclitaxel, before study drug",0.64 ± 0.06 g
same,"Paw-withdrawal threshold, g Mean ± SEM, Day 14","[1]; mouse, in vivo",1.19 ± 0.09 g
same,"PWT, g Mean ± SEM",[2],1.70 ± 0.12 g
same,half-life,in vivo,540 min
same,AUC(0-t),in vivo; blood,1.7 µM·h
same,AUC(0-t),in vivo; cerebellum,3.1 µM·h
same,AUC(0-t),in vivo; medulla,6.9 µM·h
same,AUC(0-t),in vivo; stomach,4340 µM·h
same,AUC(0-t),in vivo; vagus nerve,63.1 µM·h
same,Cmax,in vivo; blood,3.5 ± 1.2 µM
same,Cmax,in vivo; cerebellum,1.2 ± 0.02 µM
same,Cmax,in vivo; medulla,3.1 ± 0.6 µM
same,Cmax,in vivo; stomach,717.2 ± 5 µM
same,Cmax,in vivo; vagus nerve,24.2 ± 3.1 µM
same,Tmax,in vivo; blood,60 min
same,Tmax,in vivo; cerebellum,30 min
same,Tmax,in vivo; medulla,30 min
same,Tmax,in vivo; stomach,60 min
same,Tmax,in vivo; vagus nerve,30 min
same,"PWT, g Mean ± SEM",[3],0.66 ± 0.03 g
same,"PWT, g Mean ± SEM",[4],1.48 ± 0.22 g
